Experimental data as given in patent US20220378923A1, “BET DEGRADER” (KYOWA KIRIN CO., LTD., priority 2019, published 2022).
Where two headings read alike, the source gives them in different places.

System: SU-DHL-4 cells
Assay: Inhibitory effect on cell viability in SU-DHL-4 cell line (Test Example 1)
Assay type: cell-based, human
Settings: SU-DHL-4 cells, 72 hours, Cell Counting Kit-8, concentration showing 90% inhibition of cell viability, read-out: SU-DHL-4 Cell Viability Inhibition Rate IC90
Method: SU-DHL-4 cells (Code No. ACC 495, Deutsche Sammlung von Mikroorganismen and Zellkulturen GmbH; DSMZ) were cultured at 37° C. using a carbon dioxide incubator (95% air, 5% CO2) in RPMI1640 medium (Code No. 11875-093, Thermo Fisher Scientific) in which inactivated fetal bovine serum (FBS: Code No. 10099-148, Thermo Fisher Scientific) in an amount to give a final concentration of 10 vol % and penicillin/streptomycin solution (PS: […] The cells were passaged twice a week at a volume of 20-40 mL so as to maintain a cell concentration of 1×10^6 cells/mL or less. […] After seeding, the cells were precultured at 37° C. in a carbon dioxide gas incubator for 18 to 25 hours. […] At this time, the final concentration of DMSO was adjusted to be 0.1 vol %. After adding the test compound, the cells were cultured at 37° C. in a carbon dioxide gas incubator for 72 hours. Next, 0.020 mL of Cell Counting Kit-8 (Code No. CK04, DOJINDO) solution diluted 2-fold or 4-fold with phosphate buffered saline (PBS) was added to each well. Color reaction was carried out in a carbon dioxide gas incubator at 37° C. for 2 to 3 hours, and the absorbance at a wavelength of 450 nm was measured using SpectraMax 340PC (Molecular Devices). […] Absorbance of a well containing test compound • B: Absorbance of a well without addition of cells • C: Absorbance of a well without addition of test compound

Structure (SMILES) | IC90 [nM] | IC90 (Homo sapiens) [nM]
Cc1sc2c(c1C)C(c1ccc(C(=O)NC3CCN(C(=O)c4ccc(C5=N[C@@H](CC(=O)OC(C)(C)C)c6nnc(C)n6-c6sc(C)c(C)c65)cc4)CC3)cc1)=N[C@@H](CC(=O)OC(C)(C)C)c1nnc(C)n1-2 [Compound 1i, tert-Butyl 2-((S)-4-{4-[4-(4-{(S)-6-[2-(tert-butoxy)-2-oxoethyl]-2,3,9-trimethyl-6H-thieno[3,2-f][1,2,4]triazolo[4,3-a][1,4]diazepin-4-yl}benzamide)piperidine-1-carbonyl]phenyl}-2,3,9-trimethyl-6H-thieno[3,2-f][1,2,4]triazolo[4,3-a][1,4]diazepin-6-yl)acetate] | 0.54 | 
CCC(=O)N1c2ccccc2[C@H](Nc2ccc(C(=O)N[C@H]3C[C@H](NC(=O)c4ccc(N[C@@H]5C[C@H](C)N(C(=O)CC)c6ccccc65)cc4)C3)cc2)C[C@@H]1C [Compound 1j, N,N′-[(1r,3r)-Cyclobutane-1,3-diyl]bis(4-{[(2S,4R)-2-methyl-1-propionyl-1,2,3,4-tetrahydroquinolin-4-yl]amino}benzamide)] | 33.1 | 
CCC(=O)N1c2ccccc2[C@H](Nc2ccc(C(=O)NCCNC(=O)c3ccc(C4=N[C@@H](CC(=O)OC(C)(C)C)c5nnc(C)n5-c5sc(C)c(C)c54)cc3)cc2)C[C@@H]1C [Compound 1o, tert-Butyl 2-[(S)-2,3,9-trimethyl-4-(4-{[2-(4-{[(2S,4R)-2-methyl-1-propionyl-1,2,3,4-tetrahydroquinolin-4-yl]amino}benzamide)ethyl]carbamoyl}phenyl)-6H-thieno[3,2-f][1,2,4]triazolo[4,3-a][1,4]diazepin-6-yl]acetate] | 3.18 | 
Cc1sc2c(c1C)C(c1ccc(NC(=O)CNC(=O)c3ccc(C4=N[C@@H](CC(=O)OC(C)(C)C)c5nnc(C)n5-c5sc(C)c(C)c54)cc3)cc1)=N[C@@H](CC(=O)OC(C)(C)C)c1nnc(C)n1-2 [Compound 2b, tert-Butyl 2-[(S)-4-{4-[2-(4-{(S)-6-[2-(tert-butoxy)-2-oxoethyl]-2,3,9-trimethyl-6H-thieno[3,2-f][1,2,4]triazolo[4,3-a][1,4]diazepin-4-yl}benzamide)acetamide]phenyl}-2,3,9-trimethyl-6H-thieno[3,2-f][1,2,4]triazolo[4,3-a][1,4]diazepin-6-yl]acetate] | 1.52 | 
CCC(=O)N1c2ccccc2[C@H](Nc2ccc(NC(=O)CCNS(=O)(=O)c3ccc(N[C@@H]4C[C@H](C)N(C(=O)CC)c5ccccc54)cc3)cc2)C[C@@H]1C [Compound 6e, N-(4-(((2S,4R)-2-Methyl-1-propionyl-1,2,3,4-tetrahydroquinolin-4-yl)amino)phenyl)-3-((4-(((2S,4R)-2-methyl-1-propionyl-1,2,3,4-tetrahydroquinolin-4-yl)amino)phenyl)sulfonamide)propanamide] | 4.31 | 
CCC(=O)N1c2ccccc2[C@H](Nc2ccc(C(=O)c3cnc4n3CCN(C(=O)c3ccc(N[C@@H]5C[C@H](C)N(C(=O)CC)c6ccccc65)cc3)C4)cc2)C[C@@H]1C [Compound 6f, 1,1′-((2S,2'S,4R,4R)-(((5,6,7,8-Tetrahydroimidazo[1,2-a]pyrazine-3,7-dicarbonyl)bis(4,1-phenylene))bis(azanediyl))bis(2-methyl-3,4-dihydroquinoline-4,1(2H)-diyl))bis(propan-1-one)] | 0.11 | 
CCC(=O)N1c2ccccc2[C@H](Nc2ccc(NC(=O)N3CC(NC(=O)C4CCC(N[C@@H]5C[C@H](C)N(C(=O)CC)c6ccccc65)CC4)C3)cc2)C[C@@H]1C (stereo partly drawn) [Compound 7a, 3-((1R,4r)-4-(((2S,4R)-2-Methyl-1-propionyl-1,2,3,4-tetrahydroquinolin-4-yl)amino)cyclohexane-1-carboxamide)-N-(4-(((2S,4R)-2-methyl-1-propionyl-1,2,3,4-tetrahydroquinolin-4-yl)amino)phenyl)azetidine-1-carboxamide] | 10.8 | 
CCC(=O)N1c2ccccc2[C@H](Nc2ccc(NC(=O)C3CN(C(=O)N[C@H]4CC[C@H](N[C@@H]5C[C@H](C)N(C(=O)CC)c6ccccc65)CC4)C3)cc2)C[C@@H]1C [Compound 7c, N^1-((1R,4r)-4-(((2S,4R)-2-Methyl-1-propionyl-1,2,3,4-tetrahydroquinolin-4-yl)amino)cyclohexyl)-N^3-(4-(((2S,4R)-2-methyl-1-propionyl-1,2,3,4-tetrahydroquinolin-4-yl)amino)phenyl)azetidine-1,3-dicarboxamide] | 7 | 
CCC(=O)N1c2ccccc2[C@H](Nc2ccc(NC(=O)COC(=O)N[C@H]3CC[C@H](N[C@@H]4C[C@H](C)N(C(=O)CC)c5ccccc54)CC3)cc2)C[C@@H]1C [Compound 7f, 2-((4-(((2S,4R)-2-Methyl-1-propionyl-1,2,3,4-tetrahydroquinolin-4-yl)amino)phenyl)amino)-2-oxoethyl ((1R,4R)-4-(((2S,4R)-2-methyl-1-propionyl-1,2,3,4-tetrahydroquinolin-4-yl)amino)cyclohexyl)carbamate] | 3.2 | 
CCC(=O)N1c2ccccc2[C@H](Nc2ccc(NC(=O)c3coc(N[C@H]4CC[C@H](N[C@@H]5C[C@H](C)N(C(=O)CC)c6ccccc65)CC4)n3)cc2)C[C@@H]1C [Compound 7g, 2-(((1R,4R)-4-(((2S,4R)-2-Methyl-1-propionyl-1,2,3,4-tetrahydroquinolin-4-yl)amino)cyclohexyl)amino)-N-(4-(((2S,4R)-2-methyl-1-propionyl-1,2,3,4-tetrahydroquinolin-4-yl)amino)phenyl)oxazole-4-carboxamide] | 7.56 | 
CCC(=O)N1c2ccccc2[C@H](Nc2ccc(C(=O)NCC3(N[C@H]4CC[C@H](N[C@@H]5C[C@H](C)N(C(=O)CC)c6ccccc65)CC4)COC3)cc2)C[C@@H]1C [Compound 7j, 4-(((2S,4R)-2-Methyl-1-propionyl-1,2,3,4-tetrahydroquinolin-4-yl)amino)-N-((3-(((1R,4R)-4-(((2S,4R)-2-methyl-1-propionyl-1,2,3,4-tetrahydroquinolin-4-yl)amino)cyclohexyl)amino)oxetan-3-yl)methyl)benzamide] | 64 | 
CCC(=O)N1c2ccccc2[C@H](Nc2ccc(NC(=O)COCC(=O)NC3CCC(N[C@@H]4C[C@H](C)N(C(=O)CC)c5ccccc54)CC3)cc2)C[C@@H]1C (stereo partly drawn) [Compound 8b, N-((1R,4r)-4-(((2S,4R)-2-Methyl-1-propionyl-1,2,3,4-tetrahydroquinolin-4-yl)amino)cyclohexyl)-2-(2-((4-(((2S,4R)-2-methyl-1-propionyl-1,2,3,4-tetrahydroquinolin-4-yl)amino)phenyl)amino)-2-oxyethoxy)acetamide] | 13.9 | 

Results, then the compound that gave them:

IC90 [nM] | IC90 (Homo sapiens) [nM] | Structure (SMILES)
0.34 |  | CCC(=O)N1c2ccccc2[C@H](NC2CCC(NC(=O)C#CCNC(=O)c3ccc(C4=NCc5nnc(C)n5-c5sc(C)c(C)c54)cc3)CC2)C[C@@H]1C (relative stereo) [Compound 14c, N-(4-(((1R,4r)-4-(((2S*,4R*)-2-Methyl-1-propionyl-1,2,3,4-tetrahydroquinolin-4-yl)amino)cyclohexyl)amino)-4-oxobut-2-yn-1-yl)-4-(2,3,9-trimethyl-6H-thieno[3,2-f][1,2,4]triazolo[4,3-a][1,4]diazepin-4-yl)benzamide]
 | 32.7 | CCC(=O)N1c2ccccc2[C@H](Nc2ccc(NC(=O)CNCC(=O)Nc3ccc(N[C@@H]4C[C@H](C)N(C(=O)CC)c5ccccc54)nc3)cc2)C[C@@H]1C (relative stereo) [Compound 17g, N-(4-(((2S,4R)-2-Methyl-1-propionyl-1,2,3,4-tetrahydroquinolin-4-yl)amino)phenyl)-2-((2-((6-(((2S*,4R*)-2-methyl-1-propionyl-1,2,3,4-tetrahydroquinolin-4-yl)amino)pyridin-3-yl)amino)-2-oxoethyl)amino)acetamide]
0.2 |  | CCC(=O)N1c2ccccc2[C@@H](Nc2ccc(-n3cc(CNC(=O)C4CCC(N[C@@H]5C[C@H](C)N(C(=O)CC)c6ccccc65)CC4)nn3)cn2)C[C@H]1C (relative stereo) [Compound 17h, (1R,4S)-4-(((2S,4R)-2-Methyl-1-propionyl-1,2,3,4-tetrahydroquinolin-4-yl)amino)-N-((1-(6-(((2R*,4S*)-2-methyl-1-propionyl-1,2,3,4-tetrahydroquinolin-4-yl)amino)pyridin-3-yl)-1H-1,2,3-triazol-4-yl)methyl)cyclohexane-1-carboxamide]
 | 5.14 | CCC(=O)N1c2ccccc2[C@H](NCC23CC(C(=O)N4CC(C(=O)Nc5ccc(N[C@@H]6C[C@H](C)N(C(=O)CC)c7ccccc76)cc5)C4)(C2)C3)C[C@@H]1C (relative stereo) [Compound 17n, 1-(3-((((2S,4R)-2-Methyl-1-propionyl-1,2,3,4-tetrahydroquinolin-4-yl)amino)methyl)bicyclo[1.1.1]pentane-1-carbonyl)-N-(4-(((2S*,4R*)-2-methyl-1-propionyl-1,2,3,4-tetrahydroquinolin-4-yl)amino)phenyl)azetidine-3-carboxamide]
